# Results published in publication PMC9841523 (Journal of Medicinal Chemistry, 2022).
# Key:
# [1] = target: T1, FKBP12 (Homo sapiens, UniProt P62942); test: FKBP12 binding affinity, fluorescent probe displacement assay
# T1 construct: Proteros biostructures GmbH (ran the assay)
# Experimental: Thermo Fisher Scientific catalog no. A15112) in 50 mM HEPES pH 7.5, 0.01% polysorbate 20, 1 mM EGTA and 10 mM MnCl 2. Compounds were diluted in DMSO, and assay was initiated by mixing 160 nl of compound with 16 μL of assay mixture, resulting in a final DMSO
# concentration of 1%. Reactions were mixed for 30 s on an orbital shaker and incubated for 1 h at
# [2] = tested on: AKT S473 phosphorylation (mTORC2); test: AlphaLISA/MSD analysis of AKT phosphorylation in MDA-MB-468 cells; assay type: cell-based; conditions: Homo sapiens; MDA-MB-468 cells; read-out: pAKT IC50
# Experimental: (§1) Cell culture and reagents. Cells were obtained from ATCC, grown in appropriate medium supplemented with 10% fetal bovine serum and 1% penicillin/streptomycin and maintained at 37 °C in a humidified incubator at 5% CO 2.
# (§2) AlphaLISA and MesoScale Discovery (MSD) analysis of 4EBP1, S6K and AKT phosphorylation. mTOR substrate phosphorylation in MDA-MB-468 cells was assayed using AlphaLISA SureFire Ultra kits for p4EBP1 Thr37/46, p-P70S6K Thr389 and p-AKT1/2/3 Ser473 (PerkinElmer), and MSD Multi-Array Assay Systems for Phospho-4EBP1 (Thr37/46) and Phospho-AKT (Ser473) (MSD). Cells were seeded at 25,000 cells per well and exposed the next day to serial three-fold dilutions of compounds in complete medium with 0.1% dimethylsulfoxide (DMSO). After indicated incubation times, cells were lysed and AlphaLISA or MSD performed according to the manufacturers’ protocols. Samples were read using an EnVision Multilabel Plate Reader (PerkinElmer) using standard AlphaLISA settings or using an MSD plate reader. Data were plotted as a function of logM [compound] with a sigmoidal concentration response (variable slope) model fitted to the data to estimate the inhibitor half-maximum effective concentration (EC 50) in Prism 7 (GraphPad). Alternatively, results were analyzed as percentage of control in which 0% was set as signal from 1 μM Torin1 and 100% was set as the mean of DMSO wells on each plate, and inhibitor EC 50 was estimated as described
# [3] = target: T2, FKBP12-FRB (Homo sapiens, UniProt P42345+P62942); test: TR-FRET ternary complex assay; assay type: binding; conditions: at the assay detection limit
# T2 construct: human mTOR (residues 1360-2549); purchased Thermo Fisher Scientific (ran the assay)
# T2 sequence (P62942 whole entry, the tested form may be a part): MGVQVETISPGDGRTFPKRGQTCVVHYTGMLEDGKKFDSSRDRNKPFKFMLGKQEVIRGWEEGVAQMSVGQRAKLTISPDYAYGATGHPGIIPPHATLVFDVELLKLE
# T2 sequence (P42345 1360-2549 limits assumed): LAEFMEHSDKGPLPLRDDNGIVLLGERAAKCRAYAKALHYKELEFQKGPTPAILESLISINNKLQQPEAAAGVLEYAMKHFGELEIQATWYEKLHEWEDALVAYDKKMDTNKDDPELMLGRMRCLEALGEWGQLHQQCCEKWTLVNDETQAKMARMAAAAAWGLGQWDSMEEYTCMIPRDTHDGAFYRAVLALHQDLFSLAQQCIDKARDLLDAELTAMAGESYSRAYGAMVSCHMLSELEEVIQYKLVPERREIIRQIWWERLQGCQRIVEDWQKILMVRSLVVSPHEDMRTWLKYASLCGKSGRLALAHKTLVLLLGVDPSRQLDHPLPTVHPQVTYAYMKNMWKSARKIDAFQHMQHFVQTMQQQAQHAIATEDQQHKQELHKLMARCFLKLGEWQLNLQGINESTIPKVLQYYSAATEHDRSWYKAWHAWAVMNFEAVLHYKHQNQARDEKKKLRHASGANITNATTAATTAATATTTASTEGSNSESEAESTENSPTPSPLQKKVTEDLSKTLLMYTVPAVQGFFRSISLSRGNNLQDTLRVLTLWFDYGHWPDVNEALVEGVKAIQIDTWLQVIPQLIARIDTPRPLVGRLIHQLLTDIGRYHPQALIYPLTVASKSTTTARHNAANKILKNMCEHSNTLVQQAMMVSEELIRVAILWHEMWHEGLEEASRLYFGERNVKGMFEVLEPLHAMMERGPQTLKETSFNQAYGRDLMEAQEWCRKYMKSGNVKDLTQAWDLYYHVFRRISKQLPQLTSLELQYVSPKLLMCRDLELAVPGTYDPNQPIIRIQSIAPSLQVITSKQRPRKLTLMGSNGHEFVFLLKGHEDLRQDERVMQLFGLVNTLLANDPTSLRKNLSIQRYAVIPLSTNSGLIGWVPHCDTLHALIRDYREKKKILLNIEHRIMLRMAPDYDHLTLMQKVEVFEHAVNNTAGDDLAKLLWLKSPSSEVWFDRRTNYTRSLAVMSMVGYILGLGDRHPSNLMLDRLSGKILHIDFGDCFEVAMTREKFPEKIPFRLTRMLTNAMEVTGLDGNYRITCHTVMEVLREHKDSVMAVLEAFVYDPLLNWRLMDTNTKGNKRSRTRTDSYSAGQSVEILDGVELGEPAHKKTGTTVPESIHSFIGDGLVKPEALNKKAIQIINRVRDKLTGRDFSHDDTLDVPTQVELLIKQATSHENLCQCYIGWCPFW
# Experimental: Proteros biostructures GmbH, using a fluorescent probe displacement assay. […]
# same conditions, with 6 nM fluorescent probe present. 50 nL compound in DMSO was added to […]
# 11 different concentrations of compound with a 3-fold dilution factor were tested. After a 6 h incubation at room temperature acceptor fluorescence was read on a plate reader. […]
# displacement) were calculated using standard fitting algorithms. The reporter probe is used at a concentration reflecting the tenfold concentration of its own Kd (probe) value. Thus, according to the Cheng Prusoff equation, the Kd value can be calculated with Kd = IC 50 / (1 + (([10 x Kd probe]) / [Kd probe]) = IC 50 / 11.
# TR–FRET ternary complex assay. Assay was performed by Thermo Fisher Scientific, using a modification of a previously described protocol. 1 A homogeneous assay mixture was prepared […]
# Thermo Fisher Scientific catalog no. A15112) in 50 mM HEPES pH 7.5, 0.01% polysorbate 20, 1 mM EGTA and 10 mM MnCl 2. […]
# Nanosyn Lipid Kinase screen. Biochemical inhibition of lipid and related protein kinases was determined by Nanosyn (Santa Clara, CA). […]
# was determined by detection of fluorescent substrates using a microfluidic electrophoresis mobility shift assay with a LabChip3000 instrument (Caliper/PerkinElmer). […]
# [4] = tested on: 4EBP1 T37/T46 phosphorylation (mTORC1); test: AlphaLISA/MSD analysis of 4EBP1 phosphorylation in MDA-MB-468 cells; assay type: cell-based; conditions: Homo sapiens; MDA-MB-468 cells; read-out: p4EBP1 IC50
# Experimental: as §1, §2
# [5] = tested on: p-P70S6K Thr389; test: AlphaLISA/MSD analysis of S6K phosphorylation in MDA-MB-468 cells; assay type: cell-based; conditions: MDA-MB-468 cells
# Experimental: as §1, §2
# T1 sequence (P62942 whole entry): as the sequence (P62942 whole entry, the tested form may be a part) above
structure (smiles),measurement,setting,value
"CO[C@H]1C[C@@H]2CC[C@@H](C)[C@@](O)(O2)C(=O)C(=O)N2CCCC[C@H]2C(=O)O[C@H]([C@H](C)C[C@@H]2CC[C@@H](O)[C@H](OC)C2)C[C@@H](OC)[C@H](C)/C=C(\C)[C@@H](O)[C@@H](OC)C(=O)[C@H](C)C[C@H](C)/C=C/C=C/C=C/1C [compound 12, C32-methoxy rapamycin]",Kd,[1],701 nM
same,decrease in affinity for FKBP12 relative to rapamycin 1,[1],~1600 fold
same,IC50,[2],> 1000 nM
same,EC50,[3],< 10 nM
same,IC50,[4],> 1000 nM
same,IC50,"[5]; Homo sapiens, read-out: pS6K IC50",0.37 nM
same,decrease in potency (pS6K) relative to rapamycin 1,[5],6 fold
